Test results reported in publication PMC11602157, “ZNF512B binds RBBP4 via a variant NuRD interaction motif and aggregates chromatin in a NuRD complex-independent manner” (Nucleic Acids Research, 2024).

Molecular target: T1, RBBP4 (Homo sapiens, UniProt Q09028)
T1 construct: Expression of recombinant RBBP4 protein was done as described ([32]); His-tag (inferred from His-Trap purification); made in house
Experiment: Competitive fluorescence polarization (displacement of FAM-labeled ZNF512B tracer)
Assay type: binding
Settings: ratio of competitive ki, ZNF512B vs FOG-1
Protocol: Expression of recombinant RBBP4 protein was done as described ([32]). RBBP4 was purified by FPLC using the Äkta Start (Cytiva) via a His-Trap column (71502768) and subsequently a HiTRAP Q column (29051325) by standard procedures outlined in the instructions of the manufacturer. To determine the dissociation constant (kD), serial dilutions of RBBP4 protein (10–0 μM, 25 μl) in 50 mM Tris/Cl pH 7.5, 150 mM NaCl and 0.02% Triton™ X-100 were added to 25 μl of the fluorescently tagged tracer peptide for a finale volume of 50 μl with 1 nM tracer. The 384-well plate (GBO 781 900) was measured (Tecan Spark 20M) after 60 min and the kD values were calculated by converting the mP values into their corresponding anisotropy (A) values following the equation:
Hereby, A = anisotropy and P = polarization. These values were plotted versus the respective concentrations of the protein with a non-linear regression according to the following equation: […]
Hereby, A is the experimental anisotropy, Af is the anisotropy for the free ligand, Ab is the anisotropy for the fully bound ligand, LT is the total added concentration of ligand, kD is the equilibrium dissociation constant and RT is the total receptor concentration. […] Inhibition constant (ki) values were calculated using the following equation described previously by Wang et al. and the standard deviation was calculated for each ki value ([35]).

T1 sequence (Q09028 whole entry): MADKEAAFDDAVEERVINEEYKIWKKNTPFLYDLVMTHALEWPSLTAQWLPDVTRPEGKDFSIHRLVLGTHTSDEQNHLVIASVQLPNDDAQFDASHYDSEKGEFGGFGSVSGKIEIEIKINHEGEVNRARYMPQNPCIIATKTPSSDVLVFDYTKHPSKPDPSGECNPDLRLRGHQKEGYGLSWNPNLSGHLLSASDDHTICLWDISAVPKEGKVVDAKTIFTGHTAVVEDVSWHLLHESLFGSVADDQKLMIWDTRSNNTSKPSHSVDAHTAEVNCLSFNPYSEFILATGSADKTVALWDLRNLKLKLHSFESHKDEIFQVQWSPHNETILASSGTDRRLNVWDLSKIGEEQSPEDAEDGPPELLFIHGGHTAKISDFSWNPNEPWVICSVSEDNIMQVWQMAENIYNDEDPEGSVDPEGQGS

higher affinity for RBBP4 than FOG-1: > 60 -fold
SMILES: CC(=O)N[C@@H](CCCCN)C(=O)N[C@@H](Cc1c[nH]cn1)C(=O)N[C@@H](CCCNC(=N)N)C(=O)N[C@@H](CCCNC(=N)N)C(=O)N[C@@H](CCCCN)C(=O)N[C@@H](CCC(N)=O)C(=O)N[C@@H](CCCCN)C(=O)N[C@H](C(=O)N1CCC[C@H]1C(=O)N[C@@H](CCCCN)C(=O)N[C@@H](CCCCN)C(=O)N[C@@H](Cc1ccccc1)C(N)=O)[C@@H](C)O [ZNF512B-WT]
